Assay results reported in paper PMC3070799 (Neuropharmacology, 2011).
Several values for one entry are separate records, joined by “and”; a condition that tells them apart may be missing. Identical values can stand only once. Like-named read-outs stand apart in the source and are kept apart here.

Tests used:
human 5-HT3A receptors [1] = target: T1, human 5-HT3A receptors (Homo sapiens, UniProt P46098); assay: Two-electrode voltage clamp of 5-HT-induced currents in Xenopus oocytes, incl. co-application; type: cell-based; conditions: for use-dependence of inhibition: 3 μM 5-HT applied at 1 min intervals in continued presence of antagonist; for ratio of current amplitudes at +40 mV relative to −40 mV (voltage-dependence): compared with absence of antagonist, Fig. 2E; for Hill slope: concentration-inhibition curve, 1.7 μM 5-HT; for potency at 5-HT3A relative to GABA and glycine receptors: less potent than at GABA and glycine receptors, ref Huang et al., 2004, Hawthorne et al., 2006
T1 construct: expressed in transfected cells; host or cells: Xenopus laevis oocytes (cRNA from pGEMHE)
T1 sequence (P46098 24-478): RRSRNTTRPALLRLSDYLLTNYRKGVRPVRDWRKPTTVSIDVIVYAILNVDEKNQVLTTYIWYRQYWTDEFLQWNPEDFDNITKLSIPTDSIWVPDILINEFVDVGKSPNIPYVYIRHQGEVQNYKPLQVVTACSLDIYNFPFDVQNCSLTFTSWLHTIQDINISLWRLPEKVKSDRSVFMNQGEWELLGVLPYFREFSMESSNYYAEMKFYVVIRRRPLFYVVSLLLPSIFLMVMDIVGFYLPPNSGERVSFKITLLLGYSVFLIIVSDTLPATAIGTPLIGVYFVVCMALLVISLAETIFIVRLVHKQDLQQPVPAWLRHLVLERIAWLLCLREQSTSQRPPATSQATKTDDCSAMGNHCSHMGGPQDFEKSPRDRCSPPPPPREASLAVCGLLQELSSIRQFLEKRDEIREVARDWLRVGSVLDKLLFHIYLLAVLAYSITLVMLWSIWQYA
Protocol: Stage V and VI oocytes were injected with 50 nl of ∼300 ng μl^−1 cRNA, and currents were recorded 1–4 days post-injection. A ratio of 1:3 (A:B) was used for the expression of heteromeric 5-HT3 receptors.
Xenopus laevis oocyte positive females were purchased from NASCO (Fort Atkinson, Wisconsin, USA) and maintained according to standard methods.
Currents were filtered at a frequency of 1 kHz. Micro-electrodes were fabricated from borosilicate glass (GC120TF-10, Harvard Apparatus, Edenbridge, Kent, UK) using a two stage horizontal pull (P-87, Sutter Instrument Company, California, USA) and filled with 3 M KCl. […] Oocytes were perfused with saline at a rate of 15 ml min^−1. Drug application was via a simple gravity fed system calibrated to run at the same rate. Extracellular saline contained (mM), 96 NaCl, 2 KCl, 1 MgCl2 and 5 mM HEPES; adjusted to pH 7.4 with NaOH.
Analysis and curve fitting was performed using Prism V3.02 (GraphPad Software, San Diego, California, USA, www.graphpad.com). Concentration-response data for each oocyte was normalised to the maximum current for that oocyte. For inhibition curves, antagonists were routinely co-applied in the presence of agonist. For PXN, oocytes were also pre-treated with the compound for 20 s. A 2 min wash was used between drug applications. The mean and S.E.M. for a series of oocytes was plotted against agonist or antagonist concentration and iteratively fitted (GraphPad Prism v3.02) to the following Hill equation:(1) IA=Imin+Imax−Imin/1+10^nH(logA50−logA) where A is the concentration of ligand present; IA is the current in the presence of ligand concentration A; Imin is the current when A = 0; Imax is the current when A = ∞ , A50 is the concentration of A which evokes a current equal to (Imax + Imin)/2; and nH is the Hill coefficient. Results are presented as mean ± S.E.M.. Statistical analysis was performed using ANOVA in conjunction with a Dunnett’s post-hoc test.
97) • Scenario 1: Where compounds share a binding site it was assumed that the extent of binding would be determined by a competitive interaction between the compounds such that the proportion of binding sites occupied (Pocc) in the presence of two competing compounds is given by the following expression: (2) Pocc=AKA+BKB/1+AKA+BKB where A and B are the concentrations of two ligands and KA and KB are their affinity constants respectively.
In each individual experiment, for each combination of inhibitors, data values were obtained for IA, IB and IAB. From IA and IB predicted values of IAB1 and IAB2 were also derived. A two-way ANOVA was performed on values of IAB, IAB1 and IAB2 in which the distinction between IAB, IAB1 and IAB2 was treated as a fixed factor and the variation in levels of inhibition between experiments was treated as a random factor. Where the ANOVA indicated a significant difference (P < 0.05) between IAB, IAB1 and IAB2 a post-hoc analysis was carried out using the Waller–Duncan method to identify homogenous subsets with a significance level of 0.05 and a Type I /Type II error ratio if 100.
Our models were based on the following assumptions: 1. that the channel blocking compounds only effect the response that is seen when the channel is open. […] In the case of condition 5 it is possible that the binding of one compound may prevent access of another to its own site. However, in practice this will not influence the analysis since the functional consequence of the binding of both compounds compared to one will be the same, namely complete channel blockade.

human 5-HT3A receptors [2] = target: T1, human 5-HT3A receptors; type: binding
Protocol: Human embryonic kidney (HEK) 293 cells were maintained on 90 mm tissue culture plates at 37 °C and 7% CO2 in a humidified atmosphere. They were cultured in DMEM:F12 with GlutaMAX™ I media (Dulbecco’s Modified Eagle’s Medium /Nutrient Mix F12 (1:1), Invitrogen, Paisley, UK) containing 10% foetal calf serum. For radioligand binding studies, cells in 90 mm dishes were transfected using polyethyleneimine (PEI): 30 μl PEI (1 mg /ml), 5 μl cDNA and 1 ml DMEM were incubated for 10 min at room temperature, added drop wise to a 80–90% confluent plate, and incubated for 3–4 days before use.
Competition binding (8 point) was performed on at least three separate plates of transfected cells. […] Reactions were incubated for at least 1 h at 4 °C and terminated by vacuum filtration using a Brandel cell harvester onto GF/B filters pre-soaked in 0.3% polyethyleneimine. Radioactivity was determined by scintillation counting using a Beckman BCLS6500 (Fullerton, California, USA). Data were analysed by iterative curve fitting (GraphPad Prism v3.02) according to the equation:(5) BL=Bmin+Bmax−Bmin/1+10^nH(logL50−logL) where L is the concentration of ligand present; BL is the binding in the presence of ligand concentration L; Bmin is the binding when L = 0; Bmax is the binding when L = ∞, L50 is the concentration of L which gives a binding equal to (Bmax + Bmin)/2; and nH is the Hill coefficient. Results are presented as mean ± S.E.M.. Statistical analysis was performed using ANOVA in conjunction with a Dunnett’s post-hoc test.

[3] = GB 300 μM, use-dependency experiment, Fig. 3A

| Compound | use-dependence of inhibition (human 5-HT3A receptors [1]; GB 300 μM) | Level of inhibition (1 − (I/Imax)) GB (human 5-HT3A receptors [1]; GB 11 μM applied alone) | percentage inhibition measured at peak (human 5-HT3A receptors [1]; [3]) [%] | percentage inhibition measured during the first application (human 5-HT3A receptors [1]; [3]) [%] | first 5-HT response as % of the second 5-HT response (recovery) (human 5-HT3A receptors [1]; after 0.3 mM GB) [%] | ratio of current amplitudes at +40 mV relative to −40 mV (voltage-dependence) (human 5-HT3A receptors [1]) | Hill slope (human 5-HT3A receptors [1]) | potency at 5-HT3A relative to GABA and glycine receptors (human 5-HT3A receptors [1]) [fold] | Effect on binding of [3H]granisetron (1 nM) (human 5-HT3A receptors [2]; compound 2.5 mM) | IC50 (human 5-HT3A receptors [1]) [µM] | current on washout (human 5-HT3A receptors [1]; 6 mM) | Effect on binding of [3H]granisetron (1 nM) (human 5-HT3A receptors [2]) | Level of inhibition (1 − (I/Imax)) PXN (human 5-HT3A receptors [1]; PXN 5 μM applied alone) | effect on 5-HT concentration-response curves (human 5-HT3A receptors [1]; PXN between 1–50 × IC50) | inhibition at 5 µM (human 5-HT3A receptors [1]; read-out: Level of inhibition (1 − (I/Imax)) PXN, PXN 5 μM applied alone) [%] | Effect on binding of [3H]granisetron (1 nM) (human 5-HT3A receptors [2]; compound 5 mM) |
| --- | --- | --- | --- | --- | --- | --- | --- | --- | --- | --- | --- | --- | --- | --- | --- | --- |
| ginkgolide B [GB] | use-dependent | 0.25 ± 0.01 and 0.26 ± 0.05 | 31 ± 3.1 | 38 ± 0.8 | 91 ± 2 | unaltered | 1.10 ± 0.13 | ~100 | not affected | – | – | – | – | – | – | – |
| CC(C)(C)[C@]1(O)CC2OC(=O)CC23C(=O)OC2OC(=O)[C@H](O)C231 (stereo partly drawn) [BB, bilobalide] | remained stable | – | – | – | – | unaltered | 1.48 ± 0.16 | ~100 | – | 470 | transient rebound current was observed | not affected | – | – | – | – |
| C=C(C)[C@@H]1[C@H]2OC(=O)[C@@H]1[C@]1(O)C[C@H]3O[C@]34C(=O)O[C@H]2[C@]14C [PXN, picrotoxinin] | remained stable | – | – | – | – | unaltered | 0.68 ± 0.12 | – | – | 10.7 | – | – | 0.35 ± 0.03 | rightwards shifts and a reduction in the maximal current | 48 ± 4 | not affected |
